Results published in ChEMBL document CHEMBL1201862, “PubChem BioAssay data set” (2004).
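How tested: cells in 96-well plates exposed to compound for 48 hours at five concentrations. GI50 marks 50% less growth.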 Calls of active or inactive are those of the source. No stated cut-off is given here; in the data, active = GI50 up to about 1.1 µM and inactive = higher. Square brackets hold non-standard residues; d marks the D form. Peptide text beside a SMILES is read from it. Ac5c = NC1(C(=O)O)CCCC1

Legend:
Assay in all cases: NCI tumour cell line growth inhibition, 48 h
[1] = test system: MDA-MB-231
[2] = test system: Hs-578T
[3] = test system: M14
[4] = test system: T47D
[5] = test system: 786-0
[6] = test system: SK-MEL-2
[7] = test system: RXF 393
[8] = test system: U-251
[9] = test system: MDA-MB-435
[10] = test system: TK-10
[11] = test system: NCI-H522
[12] = test system: HCC 2998
[13] = test system: MOLT-4
[14] = test system: PC-3
[15] = test system: LOX IMVI
[16] = test system: A549
[17] = test system: OVCAR-5
[18] = test system: OVCAR-4
[19] = test system: COLO 205
[20] = test system: A498
[21] = test system: RPMI-8226
[22] = test system: NCI-H23
[23] = test system: NCI-H226
[24] = test system: K562
[25] = test system: KM12
[26] = test system: MDA-N
[27] = test system: IGROV-1
[28] = test system: UO-31
[29] = test system: SK-OV-3
[30] = test system: Malme-3M
[31] = test system: OVCAR-8
[32] = test system: SK-MEL-5
[33] = test system: UACC-62
[34] = test system: SF-539
[35] = test system: HCT-116
[36] = test system: SW-620
[37] = test system: BT-549
[38] = test system: CAKI-1
[39] = test system: SNB-19
[40] = test system: HT-29
[41] = test system: HCT-15
[42] = test system: NCI-H460
[43] = test system: MCF7
[44] = test system: HL-60
[45] = test system: SNB-75
[46] = test system: SN12C
[47] = test system: DU-145
[48] = test system: EKVX
[49] = test system: SR
[50] = test system: UACC-257
[51] = test system: NCI/ADR-RES
[52] = test system: SF-268
[53] = test system: CCRF-CEM
[54] = test system: SK-MEL-28
[55] = test system: OVCAR-3
[56] = test system: SF-295
[57] = test system: HOP-92
[58] = test system: ACHN
[59] = test system: HOP-62

## CCOC(=O)NNC(=O)NCc1ccccc1CNC(=O)NNC(=O)OCC
[1]
  GI50: > 100 µM (inactive)
[2]
  GI50: > 100 µM (inactive)
[3]
  GI50: > 100 µM (inactive)
[4]
  GI50: > 100 µM (inactive)
[5]
  GI50: > 100 µM (inactive)
[6]
  GI50: > 100 µM (inactive)
[7]
  GI50: > 100 µM (inactive)
[8]
  GI50: > 100 µM (inactive)
[9]
  GI50: > 100 µM (inactive)
[10]
  GI50: > 100 µM (inactive)
[11]
  GI50: > 100 µM (inactive)
[12]
  GI50: > 100 µM (inactive)
[13]
  GI50: > 100 µM (inactive)
[14]
  GI50: > 100 µM (inactive)
[15]
  GI50: > 100 µM (inactive)
[16]
  GI50: > 100 µM (inactive)
[17]
  GI50: > 100 µM (inactive)
[18]
  GI50: > 100 µM (inactive)
[19]
  GI50: > 100 µM (inactive)
[20]
  GI50: > 100 µM (inactive)
[21]
  GI50: > 100 µM (inactive)
[22]
  GI50: > 100 µM (inactive)
[23]
  GI50: > 100 µM (inactive)
[24]
  GI50: > 100 µM (inactive)
[25]
  GI50: > 100 µM (inactive)
[26]
  GI50: > 100 µM (inactive)
[27]
  GI50: > 100 µM (inactive)
[28]
  GI50: > 100 µM (inactive)
[29]
  GI50: > 100 µM (inactive)
[30]
  GI50: > 100 µM (inactive)
[31]
  GI50: > 100 µM (inactive)
[32]
  GI50: > 100 µM (inactive)
[33]
  GI50: > 100 µM (inactive)
[34]
  GI50: > 100 µM (inactive)
[35]
  GI50: > 100 µM (inactive)
[36]
  GI50: > 100 µM (inactive)
[37]
  GI50: > 100 µM (inactive)
[38]
  GI50: > 100 µM (inactive)
[39]
  GI50: > 100 µM (inactive)
[40]
  GI50: > 100 µM (inactive)
[41]
  GI50: > 100 µM
[42]
  GI50: > 100 µM (inactive)
[43]
  GI50: > 100 µM (inactive)
[44]
  GI50: > 100 µM (inactive)
[45]
  GI50: > 100 µM (inactive)
[46]
  GI50: > 100 µM (inactive)
[47]
  GI50: > 100 µM (inactive)
[48]
  GI50: > 100 µM (inactive)
[49]
  GI50: > 100 µM (inactive)
[50]
  GI50: > 100 µM (inactive)
[51]
  GI50: > 100 µM (inactive)
[52]
  GI50: > 100 µM (inactive)
[53]
  GI50: > 100 µM (inactive)
[54]
  GI50: > 100 µM (inactive)
[55]
  GI50: > 100 µM (inactive)

## COc1ccc2c(c1)CCc1c-2[nH]c2ccc(OC)cc12
[56]
  GI50: > 100 µM (inactive)
[1]
  GI50: > 100 µM (inactive)
[2]
  GI50: > 100 µM (inactive)
[57]
  GI50: > 100 µM (inactive)
[3]
  GI50: > 100 µM (inactive)
[4]
  GI50: 20.8 µM (inactive)
[5]
  GI50: > 100 µM (inactive)
[6]
  GI50: > 100 µM (inactive)
[8]
  GI50: > 100 µM (inactive)
[9]
  GI50: > 100 µM (inactive)
[10]
  GI50: > 100 µM (inactive)
[11]
  GI50: > 100 µM (inactive)
[12]
  GI50: > 100 µM (inactive)
[13]
  GI50: > 100 µM (inactive)
[14]
  GI50: > 100 µM (inactive)
[58]
  GI50: > 100 µM (inactive)
[15]
  GI50: > 100 µM (inactive)
[16]
  GI50: > 100 µM (inactive)
[17]
  GI50: > 100 µM (inactive)
[18]
  GI50: > 100 µM (inactive)
[19]
  GI50: > 100 µM (inactive)
[20]
  GI50: > 100 µM (inactive)
[21]
  GI50: > 100 µM (inactive)
[22]
  GI50: > 100 µM (inactive)
[59]
  GI50: > 100 µM (inactive)
[23]
  GI50: 36.4 µM (inactive)
[24]
  GI50: > 100 µM (inactive)
[25]
  GI50: > 100 µM (inactive)
[26]
  GI50: > 100 µM (inactive)
[27]
  GI50: > 100 µM (inactive)
[28]
  GI50: > 100 µM (inactive)
[29]
  GI50: > 100 µM (inactive)
[30]
  GI50: 45.8 µM (inactive)
[31]
  GI50: > 100 µM (inactive)
[32]
  GI50: > 100 µM (inactive)
[33]
  GI50: > 100 µM (inactive)
[35]
  GI50: > 100 µM (inactive)
[36]
  GI50: > 100 µM (inactive)
[37]
  GI50: > 100 µM (inactive)
[38]
  GI50: > 100 µM (inactive)
[39]
  GI50: > 100 µM (inactive)
[40]
  GI50: 7.21 µM (inactive)
[41]
  GI50: > 100 µM
[42]
  GI50: > 100 µM (inactive)
[43]
  GI50: > 100 µM (inactive)
[45]
  GI50: > 100 µM (inactive)
[46]
  GI50: > 100 µM (inactive)
[47]
  GI50: > 100 µM (inactive)
[48]
  GI50: > 100 µM (inactive)
[49]
  GI50: > 100 µM (inactive)
[50]
  GI50: > 100 µM (inactive)
[51]
  GI50: > 100 µM (inactive)
[52]
  GI50: > 100 µM (inactive)
[53]
  GI50: 14.4 µM (inactive)
[54]
  GI50: > 100 µM (inactive)
[55]
  GI50: > 100 µM (inactive)

## NCC(=O)NC1(C(=O)O)CCCC1 (H-Gly-[Ac5c]-OH)
[56]
  GI50: > 100 µM (inactive)
[1]
  GI50: > 100 µM (inactive)
[2]
  GI50: > 100 µM (inactive)
[57]
  GI50: > 100 µM (inactive)
[3]
  GI50: > 100 µM (inactive)
[4]
  GI50: > 100 µM (inactive)
[5]
  GI50: > 100 µM (inactive)
[6]
  GI50: > 100 µM (inactive)
[7]
  GI50: > 100 µM (inactive)
[8]
  GI50: > 100 µM (inactive)
[9]
  GI50: > 100 µM (inactive)
[10]
  GI50: > 100 µM (inactive)
[11]
  GI50: > 100 µM (inactive)
[12]
  GI50: > 100 µM (inactive)
[13]
  GI50: > 100 µM (inactive)
[14]
  GI50: > 100 µM (inactive)
[58]
  GI50: > 100 µM (inactive)
[15]
  GI50: > 100 µM (inactive)
[16]
  GI50: > 100 µM (inactive)
[17]
  GI50: > 100 µM (inactive)
[18]
  GI50: > 100 µM (inactive)
[19]
  GI50: > 100 µM (inactive)
[20]
  GI50: > 100 µM (inactive)
[21]
  GI50: > 100 µM (inactive)
[22]
  GI50: > 100 µM (inactive)
[59]
  GI50: > 100 µM (inactive)
[24]
  GI50: > 100 µM (inactive)
[25]
  GI50: > 100 µM (inactive)
[26]
  GI50: > 100 µM (inactive)
[27]
  GI50: > 100 µM (inactive)
[28]
  GI50: > 100 µM (inactive)
[29]
  GI50: > 100 µM (inactive)
[30]
  GI50: > 100 µM (inactive)
[31]
  GI50: > 100 µM (inactive)
[32]
  GI50: > 100 µM (inactive)
[33]
  GI50: > 100 µM (inactive)
[34]
  GI50: > 100 µM (inactive)
[35]
  GI50: > 100 µM (inactive)
[36]
  GI50: > 100 µM (inactive)
[37]
  GI50: > 100 µM (inactive)
[38]
  GI50: > 100 µM (inactive)
[39]
  GI50: > 100 µM (inactive)
[40]
  GI50: > 100 µM (inactive)
[41]
  GI50: > 100 µM
[42]
  GI50: > 100 µM (inactive)
[43]
  GI50: > 100 µM (inactive)
[45]
  GI50: > 100 µM (inactive)
[46]
  GI50: > 100 µM (inactive)
[47]
  GI50: > 100 µM (inactive)
[48]
  GI50: > 100 µM (inactive)
[49]
  GI50: > 100 µM (inactive)
[50]
  GI50: > 100 µM (inactive)
[51]
  GI50: > 100 µM (inactive)
[52]
  GI50: > 100 µM (inactive)
[54]
  GI50: > 100 µM (inactive)
[55]
  GI50: > 100 µM (inactive)
